Experiment [1] concerns the target AMPA ((RS)-α-amino-3-hydroxy-5-methyl-4-isoxazolepropionic acid) binding site. Nature of the experiment: AMPA binding assay (T. Honoré et al., Neuroscience Letters 54, 27-32 (1985)). Here is the method: In the same assay 1,2,3,6,7,8-hexahydro-3-(hydroxyimino)-N,N,7-trimethyl-2-oxobenzo[2,1-b:3,4-c']dipyrrole-5-sulfonamide has an IC50 of 0.3 µM.
Experiment [2] relates to AMPA-induced clonic seizures. Put plainly: AMPA-induced clonic seizures (AMPA seizure test). Type of experiment: in vivo, female NMRI mice. The conditions noted are these: Mus musculus, iv; test compound i.v. 5 min before 0.3 µg icv AMPA; dose inhibiting 50% of the mice from having clonic seizures. As for the experimental part: AMPA given icv (intracerebroventricular) (15 µg/kg) NMRI to mice induces clonic seizures which should be inhibited by non-NMDA receptor excitatory amino acid antagonists.
Test compound was given i.v. 5 min (or p.o. 30 min) before a 0.3 µg icv administration of AMPA to 10 female NMRI mice (weighing 24-26 g) per dose. The number of mice experiencing clonic seizures within the next 5 min was noted. An ED50 value was calculated as the dose inhibiting 50% of the mice from having clonic seizures.

For orientation: IC50 means the concentration that gives 50% inhibition. A higher IC50 goes with weaker potency in that assay. In experiment [1], `CN1Cc2c(S(=O)(=O)N(C)C)cc3c(c2C1)NC(=O)C3=NO` [1,2,3,6,7,8-hexahydro-3-(hydroxyimino)-N,N,7-trimethyl-2-oxobenzo[2,1-b:3,4-c']dipyrrole-5-sulfonamide] came in with an IC50 of 300 nM. In other words, the sub-micromolar range.

Molecule `O=C1CCCc2c3c(cc([N+](=O)[O-])c2N1)C(=NO)C(=O)N3` [5-nitro-1H,6H-2,3,7,8,9,10-hexahydro-2,3,7-trioxo-azepino[2,3-g]indole-3-oxime] displayed an IC50 in experiment [1] of 4000 nM.

The ED50 is the dose at which the effect has come halfway, by size or by number of responders. Read a low ED50 as an effect at a small dose. `CN1Cc2ccc3c(c2C1)NC(=O)C3=NO` [7-methyl-1,6,7,8-tetrahydrobenzo[2,1-b:3,4-c']dipyrrole-2,3-dione-3-oxime]: the IC50 in experiment [1] was 1000 nM. Moreover, in experiment [2], the ED50 amounted to 8 mg/kg.
